Our source for the TGI and GI50 values is PubChem BioAssay (NCI).

Common to all, as to assay: NCI-60 cell line screen, 48 h
The subject of test [1] is CAKI-1 renal.
For test [2], the system named is UACC-62 melanoma.
Test [3] concerns SK-OV-3 ovarian.
For test [4], the system named is OVCAR-5 ovarian.
Test [5] relates to TK-10 renal.
Test [6] concerns NCI-H522 lung.
The subject of test [7] is U251 CNS.
Test [8] concerns IGROV1 ovarian.
The subject of test [9] is SF-295 CNS.
Test [10] deals with A549 NSCLC.

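Protocol summary: plate cells (96-well), add compound at 5 concentrations, incubate 48 h, interpolate endpoints linearly. At the GI50, growth is halved. TGI is the concentration that stops growth completely.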

With `O=c1c(O)c(-c2cc(O)c(O)c(O)c2)oc2cc(O)cc(O)c12`, the TGI was 54 µM in [1]; over 100 µM in test [2]; over 100 µM in [3]; over 100 µM in [4]; over 100 µM in [5]; over 100 µM in [6]. The TGI in test [7] was 32.8 µM; in [8] it was over 100 µM; in [9], 36.3 µM; in [10] it was over 100 µM.
On to `CCNC(=O)O[C@H]1CN[C@H](C#Cc2cc3ncnc(Nc4ccc(OCc5cccc(F)c5)c(Cl)c4)c3s2)C1`, for which the GI50 was 880 nM in test [1]; 17000 nM in test [2]; 29.9 nM in test [3]; 8.98 µM in [4]; 198 nM in test [5]; 371 nM in test [6]. Besides, the GI50 is 9240 nM in test [7], 2660 nM in test [8], 8130 nM in test [9] and 5290 nM in test [10]. Moreover, the TGI in test [1] is over 25 µM; in test [2] it was over 25 µM; in test [3] it was over 25 µM; in test [4] it was over 25 µM; in test [5], 11.4 µM; in test [6] it was 5.91 µM. For the same compound, the TGI in [7], in test [8], in [9] and in test [10] was over 25 µM in each case.
On to `N#CC1CC2(CCN1C(=O)c1ccccc1)OCCO2` (centres undefined), for which the TGI in test [1] is over 100 µM; in test [2], over 100 µM; in test [3], over 100 µM; in test [4] it was over 100 µM; in [5], over 100 µM; in test [6] it was 78.2 µM. For the same compound, the TGI in test [7], in test [8], in [9] and in [10] was over 100 µM throughout.
With `CN(Cc1cc(C(C)(C)C)cc(Br)c1O)Cc1cc(C(C)(C)C)cc(Br)c1O`, the TGI in test [1] was 11.4 µM; in test [2], 12.8 µM; in test [3], 22.2 µM; in [4] it was 18.5 µM; in test [5] it was 5.88 µM; in [6], 7.33 µM. The TGI in test [7] came to 8.15 µM; in [8] it was 13.5 µM; in test [9], 14.3 µM; in test [10], 13.7 µM.
As to `CN(C)CCNC(=O)c1ccc(NC(=O)c2nc([N+](=O)[O-])cn2C)cc1`, the TGI in test [1], in test [2], in test [3], in test [4], in [5] and in test [6] was over 100 µM in each case. Besides, the TGI in test [7], in test [8], in [9] and in [10] was over 100 µM throughout.
As for `O=C(OC[C@H]1O[C@H](OC(=O)c2cc(O)c(O)c(OC(=O)c3cc(O)c(O)c(O)c3)c2)[C@H](OC(=O)c2cc(O)c(O)c(OC(=O)c3cc(O)c(O)c(O)c3)c2)[C@@H](OC(=O)c2cc(O)c(O)c(OC(=O)c3cc(O)c(O)c(O)c3)c2)[C@@H]1OC(=O)c1cc(O)c(O)c(OC(=O)c2cc(O)c(O)c(O)c2)c1)c1cc(O)c(O)c(OC(=O)c2cc(O)c(O)c(O)c2)c1`, the GI50 in test [1] is 1390 nM; in [2], 985 nM; in [3] it was 2250 nM; in test [4], 4.95 µM; in test [5] it was 7660 nM; in test [6] it was 1960 nM. The GI50 was 1900 nM in [7], 3690 nM in [8], 941 nM in test [9] and 1400 nM in [10]. The TGI was over 25 µM in [1]; over 25 µM in [2]; over 25 µM in test [3]; over 25 µM in test [4]; over 25 µM in [5]; 7.68 µM in [6]. In addition, the TGI in test [7], in test [8], in test [9] and in test [10] was over 25 µM in each case.
As to `N#CC1(C#N)C(C#N)(C#N)C12CCCCCC2`, the TGI in [1] is 24.6 µM; in [2], 18.4 µM; in test [3], over 100 µM; in test [4], 30 µM; in test [5] it was 30.5 µM; in test [6], 7.88 µM. In addition, the TGI in test [7] is 20.5 µM; in test [8], over 68.8 µM; in test [9], over 57.2 µM; in test [10] it was 21.4 µM.
Take `O=C1CCc2c(sc3[nH]c(=S)n(Cc4ccc(Cl)cc4)c(=O)c23)C1`: the GI50 is 451 nM in [1]; 329 nM in test [2]; 2860 nM in test [3]; 0.743 µM in test [4]; 988 nM in test [5]; 340 nM in test [6]. The GI50 is 377 nM in test [7], 454 nM in [8], 863 nM in test [9] and 497 nM in test [10]. Moreover, the TGI in test [2] was 1.76 µM; in test [3], 8.92 µM; in test [4], 3.6 µM; in test [5], over 100 µM; in test [6] it was 1.68 µM; in test [7], 18 µM. Further, the TGI is over 100 µM in [8], 4.68 µM in test [9] and 16.6 µM in test [10].
In the case of `Clc1ccc(C(n2cc(Br)cn2)n2cc(Br)cn2)cc1`, the TGI in test [1] stood at 23.4 µM; in [2], 28.7 µM; in test [3] it was 60.9 µM; in test [4], 29.9 µM; in [5], 32 µM; in test [6], 27.7 µM. Besides, the TGI in test [7] turned out to be 30.8 µM; in [8], 41.3 µM; in test [9] it was 29.8 µM; in [10], 32.6 µM.
Turning to `CC(C)(c1ccccc1)c1ccc(OC#N)cc1`, the TGI was over 100 µM in test [1]; over 100 µM in test [2]; over 100 µM in test [3]; over 100 µM in [4]; over 100 µM in [5]; 24.4 µM in test [6]. The TGI in test [7], in test [8], in [9] and in test [10] was over 100 µM throughout.
